From US9808470B2, “Estrogenic components for use in the treatment of neurological disorders” (UNIVERSITE DE LIEGE, priority 2012, dated 2017)

Tests used:
Format in all cases: in vivo
doublecortin (DCX) = assay: Ex.8 neuroprotective HIE rat model: doublecortin staining; conditions: 5 mg/kg/day E4, DG
Protocol: Newborn rat pups were assigned to one of the following 14 groups from postnatal day 4 (FIG. 23(A)): Sham group (n=12), Vehicle group (n=17), 5 mg/kg/day E4 (n=13), 10 mg/kg/day E4 (n=10), 5 mg/kg/day E4+1.6 mg/kg/day PROG (n=11), 10 mg/kg/day E4+1.6 mg/kg/day PROG (n=11), 5 mg/kg/day E4+16 mg/kg/day PROG (n=11), 10 mg/kg/day E4+16 mg/kg/day PROG (n=11), 5 mg/kg/day E4+136 ng//kg/day E2 (n=11), 10 mg/kg/day E4+136 ng/kg/day E2 (n=11), 5 mg/kg/day E4+1.6 mg/kg/day PROG+136 ng/kg/day (n=13) E2, 10 mg/kg/day E4+1.6 mg/kg/day PROG+136 ng/kg/day E2 (n=16), 5 mg/kg/day E4+16 mg/kg/day PROG+136 ng/kg/day E2 (n=11), 10 mg/kg/day E4+16 mg/kg/day PROG+136 ng/kg/day groups (n=13). Intraperitoneal injections of the pups from study groups were performed from postnatal day 4 to postnatal day 7 inclusively. […]
The sections were heated in 10 mmol/L citrate buffer (pH 6.0) at 100° C. for 10 minutes. […] Samples were analyzed with the aid of a microscope (Olympus Vanox AHBT3, Olympus), and the ImageJ software 15 (NIH). The percentage of positively stained cells was quantified as a sum of positively stained either DCX or VEGF cells divided by the total number of DAPI positive cells expressed in percentage.

[1] = Ex.4 therapeutic HIE rat model: rectal temperature; conditions: E4 1, 5, 10, 50 mg/kg single ip dose after HI at PND7; 0, 2, 4 h after hypoxia
Protocol: The rectal temperature of the rat pups was measured with a multipurpose thermometer (BAT-10R, Physitemp Instruments Inc., Clifton, N.J., US) along with a rectal probe (RET-4, BioMedical Instruments, Zollnitz, Germany) at 0, 2, and 4 hours after exposure to hypoxic insult. To keep the variability of the temperature low, measurements of rectal temperature were made in a 25° C. room 15 min after removal of the pups from the nest (except the 1st post-hypoxic measurement which was done immediately). It has been shown that the rectal temperature corresponds very well to the brain core temperature (Thoresen et al. 1996. Arch Dis Child Fetal Neonatal 74: F3-F9, Yager et al. 1993. Pediatr Res 34: 525-529).
To study the therapeutic effect of estetrol, newborn rat pups were assigned to one of the following 6 groups at postnatal day 7: sham group (n=29), vehicle group (n=20), 1 mg/kg E4 group (n=16), 5 mg/kg E4 group (n=19), 10 mg/kg day E4 (n=17) and 50 mg/kg day E4 group (n=15). At postnatal day 7 animals were anesthetized with isoflurane (induction, 3.0%; maintenance, 1.5%), and the rat pups from vehicle and E4 groups passed through surgery encompassing left common carotid artery double ligation and cut. After surgery, the pups were returned to their dams and allowed to recover for 1 hour. The pups were then placed in a humidified hypoxic in vivo cabinet (CoyLab). […]

[2] = tested on: intact cells in hippocampus and cortex; assay: Ex.8 neuroprotective HIE rat model: intact cell counting
Protocol: Newborn rat pups were assigned to one of the following 14 groups from postnatal day 4 (FIG. 23(A)): Sham group (n=12), Vehicle group (n=17), 5 mg/kg/day E4 (n=13), 10 mg/kg/day E4 (n=10), 5 mg/kg/day E4+1.6 mg/kg/day PROG (n=11), 10 mg/kg/day E4+1.6 mg/kg/day PROG (n=11), 5 mg/kg/day E4+16 mg/kg/day PROG (n=11), 10 mg/kg/day E4+16 mg/kg/day PROG (n=11), 5 mg/kg/day E4+136 ng//kg/day E2 (n=11), 10 mg/kg/day E4+136 ng/kg/day E2 (n=11), 5 mg/kg/day E4+1.6 mg/kg/day PROG+136 ng/kg/day (n=13) E2, 10 mg/kg/day E4+1.6 mg/kg/day PROG+136 ng/kg/day E2 (n=16), 5 mg/kg/day E4+16 mg/kg/day PROG+136 ng/kg/day E2 (n=11), 10 mg/kg/day E4+16 mg/kg/day PROG+136 ng/kg/day groups (n=13). Intraperitoneal injections of the pups from study groups were performed from postnatal day 4 to postnatal day 7 inclusively. At day 7, 30 minutes after last injection, animals were anesthetized with isoflurane (induction, 3.0%; maintenance, 1.5%), and the rat pups from vehicle and all the other groups, except the sham group, passed through surgery encompassing left common carotid artery double ligation and cut. After the procedure, the pups were returned to their dams and were allowed to recover for 1 hour. The pups were then placed in the humidified hypoxic in vivo cabinet (CoyLab, Grass Lake, Mich., USA). Hypoxia was produced by the inhalation of 11%-8% of oxygen balanced by nitrogen at decreased concentration of oxygen for 20 minutes, followed by inhalation of 8% oxygen and 92% nitrogen at constant concentration for 35 minutes. All the manipulations were performed at 37° C. The Sham group went through similar procedures without left common carotid artery ligation followed by neither hypoxia nor injection. […]
Intact cell counting was performed on hematoxylin-eosin-stained sections of the rat pups brains at magnification 400× in 3 fields of the respective brain area. […] The sections were analyzed with the aid of a microscope (Olympus BX51, Olympus, Tokyo, Japan), an image scanner (DotSlide Digital Virtual Microscopy, Olympus, Germany) and ImageJ software (NIH, US). […]

rectal temperature [1]: did not affect the body temperature
SMILES: C[C@]12CC[C@@H]3c4ccc(O)cc4CC[C@H]3[C@@H]1[C@@H](O)[C@@H](O)[C@@H]2O [E4, 1,3,5(10)-estratrien-3,15α,16α,17β-tetrol]
percentage of DCX positively stained cells (doublecortin (DCX)): 60.29±5.66% | number of intact cells per visual field ([2]; 5 mg/kg/day E4, SGZ): 72.10±5.93 | number of intact cells per visual field ([2]; 10 mg/kg/day E4, DG): 227.30±14.18 | number of intact cells per visual field ([2]; 10 mg/kg/day E4, SGZ): 86.10±5.84
